In PubChem BioAssay (NCI):
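Five concentrations, 48 hours, 96-well plates. At the GI50, growth is halved. TGI: concentration producing complete growth inhibition.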

Experiments:
Test in all cases: growth of human tumour cells (NCI), 48 h
COLO 205 colon = system: COLO 205 colon
SNB-75 CNS = system: SNB-75 CNS
OVCAR-8 ovarian = system: OVCAR-8 ovarian
MOLT-4 leukemia = system: MOLT-4 leukemia
OVCAR-4 ovarian = system: OVCAR-4 ovarian
HOP-92 NSCLC = system: HOP-92 NSCLC
HT29 colon = system: HT29 colon
MALME-3M melanoma = system: MALME-3M melanoma
K-562 leukemia = system: K-562 leukemia
U251 CNS = system: U251 CNS
PC-3 prostate = system: PC-3 prostate
RXF 393 renal = system: RXF 393 renal
SK-MEL-28 melanoma = system: SK-MEL-28 melanoma
NCI-H460 lung = system: NCI-H460 lung
NCI/ADR-RES ovarian = system: NCI/ADR-RES ovarian
CAKI-1 renal = system: CAKI-1 renal
SNB-19 CNS = system: SNB-19 CNS
BT-549 breast = system: BT-549 breast
SN12C renal = system: SN12C renal
MCF7 breast = system: MCF7 breast
NCI-H226 lung = system: NCI-H226 lung
TK-10 renal = system: TK-10 renal
EKVX NSCLC = system: EKVX NSCLC
A549 NSCLC = system: A549 NSCLC
SK-MEL-5 melanoma = system: SK-MEL-5 melanoma
RPMI-8226 leukemia = system: RPMI-8226 leukemia
MDA-MB-435 = system: MDA-MB-435
UACC-62 melanoma = system: UACC-62 melanoma
SK-MEL-2 melanoma = system: SK-MEL-2 melanoma
ACHN renal = system: ACHN renal
CCRF-CEM leukemia = system: CCRF-CEM leukemia
SK-OV-3 ovarian = system: SK-OV-3 ovarian
M14 melanoma = system: M14 melanoma
HOP-62 NSCLC = system: HOP-62 NSCLC
SF-295 CNS = system: SF-295 CNS
SW-620 colon = system: SW-620 colon
UO-31 renal = system: UO-31 renal
IGROV1 ovarian = system: IGROV1 ovarian
HL-60(TB) leukemia = system: HL-60(TB) leukemia
SF-268 CNS = system: SF-268 CNS
786-0 renal = system: 786-0 renal
SF-539 CNS = system: SF-539 CNS
OVCAR-5 ovarian = system: OVCAR-5 ovarian
LOX IMVI melanoma = system: LOX IMVI melanoma
SR leukemia = system: SR leukemia
HS 578T breast = system: HS 578T breast
T-47D breast = system: T-47D breast
DU-145 prostate = system: DU-145 prostate
HCT-116 colon = system: HCT-116 colon
NCI-H522 lung = system: NCI-H522 lung
KM12 colon = system: KM12 colon
HCC-2998 colon = system: HCC-2998 colon
OVCAR-3 ovarian = system: OVCAR-3 ovarian
HCT-15 colon = system: HCT-15 colon
MDA-MB-231 breast = system: MDA-MB-231 breast
NCI-H23 lung = system: NCI-H23 lung
UACC-257 melanoma = system: UACC-257 melanoma

## Cc1ccc(S(=O)(=O)C2=C3C(=C(c4ccccc4)c4ccccc43)CN(S(=O)(=O)c3ccc(C)cc3)C2)cc1
COLO 205 colon
  GI50: 14.9 µM
  TGI: > 100 µM
SNB-75 CNS
  GI50: 2.92 µM
  TGI: 31.6 µM
OVCAR-8 ovarian
  GI50: 2.65 µM
  TGI: 38.1 µM
MOLT-4 leukemia
  GI50: 1.36 µM
  TGI: 7.9 µM
OVCAR-4 ovarian
  GI50: 5.31 µM
  TGI: 72.9 µM
HOP-92 NSCLC
  GI50: 1.86 µM
  TGI: 13.8 µM
HT29 colon
  GI50: 3.32 µM
  TGI: 69.4 µM
MALME-3M melanoma
  GI50: 9.71 µM
  TGI: 29.2 µM
K-562 leukemia
  GI50: 2.08 µM
  TGI: > 100 µM
U251 CNS
  GI50: 3.01 µM
  TGI: 12.7 µM
PC-3 prostate
  GI50: 3.39 µM
  TGI: > 100 µM
RXF 393 renal
  GI50: 4.01 µM
  TGI: 16 µM
SK-MEL-28 melanoma
  GI50: 15 µM
  TGI: 52.3 µM
NCI-H460 lung
  GI50: 1.94 µM
  TGI: 15.1 µM
NCI/ADR-RES ovarian
  GI50: 2.98 µM
  TGI: 90.7 µM
CAKI-1 renal
  GI50: 11.5 µM
  TGI: > 100 µM
SNB-19 CNS
  GI50: 12.9 µM
  TGI: 55.7 µM
BT-549 breast
  GI50: 1.93 µM
  TGI: 4.65 µM
SN12C renal
  GI50: 3.04 µM
  TGI: 20.1 µM
MCF7 breast
  GI50: 2.43 µM
  TGI: > 100 µM
NCI-H226 lung
  GI50: 2.57 µM
  TGI: 7.85 µM
TK-10 renal
  GI50: 14.2 µM
  TGI: 30.1 µM
EKVX NSCLC
  GI50: 6.01 µM
  TGI: > 100 µM
A549 NSCLC
  GI50: > 100 µM
  TGI: > 100 µM
SK-MEL-5 melanoma
  GI50: 5.04 µM
  TGI: 18.3 µM
RPMI-8226 leukemia
  GI50: 1.41 µM
  TGI: 7.41 µM
MDA-MB-435
  GI50: 3.76 µM
  TGI: 17.9 µM
UACC-62 melanoma
  GI50: 4.85 µM
  TGI: 24.9 µM
SK-MEL-2 melanoma
  GI50: 6.1 µM
  TGI: 30.3 µM
ACHN renal
  GI50: 4.52 µM
  TGI: 19.3 µM
CCRF-CEM leukemia
  GI50: 0.446 µM
  TGI: > 100 µM
SK-OV-3 ovarian
  GI50: > 100 µM
  TGI: > 100 µM
M14 melanoma
  GI50: 5.63 µM
  TGI: 34.4 µM
HOP-62 NSCLC
  GI50: 15.4 µM
  TGI: 51.9 µM
SF-295 CNS
  GI50: 9.97 µM
  TGI: 57 µM
SW-620 colon
  GI50: 0.636 µM
  TGI: 3.4 µM
UO-31 renal
  GI50: 1.95 µM
  TGI: 18.2 µM
IGROV1 ovarian
  GI50: 5.36 µM
  TGI: 62.6 µM
HL-60(TB) leukemia
  GI50: 11.2 µM
  TGI: > 100 µM
SF-268 CNS
  GI50: 2.6 µM
  TGI: 12.9 µM
786-0 renal
  GI50: 1.67 µM
  TGI: 3.22 µM
SF-539 CNS
  GI50: 10.9 µM
  TGI: 49 µM
OVCAR-5 ovarian
  GI50: 25.4 µM
  TGI: > 100 µM
LOX IMVI melanoma
  GI50: 1.12 µM
  TGI: 2.42 µM
SR leukemia
  GI50: 1.55 µM
  TGI: 25.7 µM
HS 578T breast
  GI50: 2.57 µM
  TGI: 39.9 µM
T-47D breast
  GI50: 2.91 µM
  TGI: 31.5 µM
DU-145 prostate
  GI50: 11.8 µM
  TGI: > 100 µM
HCT-116 colon
  GI50: 2 µM
  TGI: 7.78 µM
NCI-H522 lung
  GI50: 2.41 µM
  TGI: 6.35 µM
KM12 colon
  GI50: 5.87 µM
  TGI: > 100 µM
HCC-2998 colon
  GI50: 22.5 µM
  TGI: > 100 µM
OVCAR-3 ovarian
  GI50: 4.34 µM
  TGI: 18.8 µM
HCT-15 colon
  GI50: 2.32 µM
  TGI: 16.3 µM
MDA-MB-231 breast
  GI50: 2.9 µM
  TGI: 11.1 µM
NCI-H23 lung
  GI50: 3.36 µM
  TGI: 23.7 µM
UACC-257 melanoma
  GI50: 15.8 µM
  TGI: 37.4 µM

## Clc1cccc(Cc2cn3cc(-c4ccccc4)nc3s2)c1
SNB-75 CNS
  GI50: 21.2 µM
  TGI: 76.7 µM
OVCAR-8 ovarian
  GI50: 20.5 µM
  TGI: > 100 µM
MOLT-4 leukemia
  GI50: > 100 µM
  TGI: > 100 µM
OVCAR-4 ovarian
  GI50: 4.42 µM
  TGI: > 100 µM
HOP-92 NSCLC
  GI50: 11.5 µM
  TGI: 34.3 µM
HT29 colon
  GI50: 11.8 µM
  TGI: > 100 µM
MALME-3M melanoma
  GI50: 21.4 µM
  TGI: > 100 µM
K-562 leukemia
  GI50: 0.591 µM
  TGI: > 100 µM
U251 CNS
  GI50: 9.18 µM
  TGI: 81.2 µM
PC-3 prostate
  GI50: 14.4 µM
  TGI: > 100 µM
RXF 393 renal
  GI50: 15.1 µM
  TGI: 40.4 µM
SK-MEL-28 melanoma
  GI50: 61.5 µM
  TGI: > 100 µM
NCI-H460 lung
  GI50: 3.31 µM
  TGI: > 100 µM
NCI/ADR-RES ovarian
  GI50: 3.49 µM
  TGI: > 100 µM
CAKI-1 renal
  GI50: 2.68 µM
  TGI: > 100 µM
SNB-19 CNS
  GI50: 8.92 µM
  TGI: > 100 µM
BT-549 breast
  GI50: 28.8 µM
  TGI: > 100 µM
SN12C renal
  GI50: 7.41 µM
  TGI: > 100 µM
MCF7 breast
  GI50: 2.79 µM
  TGI: > 100 µM
NCI-H226 lung
  GI50: 49.2 µM
  TGI: > 100 µM
TK-10 renal
  GI50: 22 µM
  TGI: > 100 µM
A549 NSCLC
  GI50: 3.93 µM
  TGI: > 100 µM
SK-MEL-5 melanoma
  GI50: 2.67 µM
  TGI: > 100 µM
RPMI-8226 leukemia
  GI50: 7.4 µM
  TGI: > 100 µM
MDA-MB-435
  GI50: 3.48 µM
  TGI: > 100 µM
UACC-62 melanoma
  GI50: 0.323 µM
  TGI: 1.97 µM
SK-MEL-2 melanoma
  GI50: 3.28 µM
  TGI: 34.4 µM
ACHN renal
  GI50: 2.77 µM
  TGI: > 100 µM
CCRF-CEM leukemia
  GI50: 43 µM
  TGI: > 100 µM
SK-OV-3 ovarian
  GI50: 39.6 µM
  TGI: > 100 µM
M14 melanoma
  GI50: 0.84 µM
  TGI: > 100 µM
HOP-62 NSCLC
  GI50: 9.1 µM
  TGI: 40.5 µM
SW-620 colon
  GI50: 1.26 µM
  TGI: > 100 µM
UO-31 renal
  GI50: 7.47 µM
  TGI: > 100 µM
IGROV1 ovarian
  GI50: 5.36 µM
  TGI: > 100 µM
HL-60(TB) leukemia
  GI50: 9.13 µM
  TGI: > 100 µM
SF-268 CNS
  GI50: 12.8 µM
  TGI: > 100 µM
786-0 renal
  GI50: 26.7 µM
  TGI: > 100 µM
SF-539 CNS
  GI50: 8.31 µM
  TGI: > 100 µM
OVCAR-5 ovarian
  GI50: 66.8 µM
  TGI: > 100 µM
LOX IMVI melanoma
  GI50: 0.629 µM
  TGI: > 100 µM
SR leukemia
  GI50: 36.5 µM
  TGI: > 100 µM
HS 578T breast
  GI50: 13.4 µM
  TGI: > 100 µM
T-47D breast
  GI50: 2.33 µM
  TGI: > 100 µM
DU-145 prostate
  GI50: 17.7 µM
  TGI: > 100 µM
HCT-116 colon
  GI50: 9.36 µM
  TGI: > 100 µM
KM12 colon
  GI50: 1.99 µM
  TGI: > 100 µM
HCC-2998 colon
  GI50: 2.39 µM
  TGI: > 100 µM
OVCAR-3 ovarian
  GI50: 9.07 µM
  TGI: > 100 µM
MDA-MB-231 breast
  GI50: 1.91 µM
  TGI: 21.3 µM
NCI-H23 lung
  GI50: 9.07 µM
  TGI: 98.9 µM
UACC-257 melanoma
  GI50: 10.3 µM
  TGI: > 100 µM
